Results reported in PMC3834340, “X-Ray Crystal Structure of the Ancestral 3-Ketosteroid Receptor–Progesterone–Mifepristone Complex Shows Mifepristone Bound at the Coactivator Binding Interface” (PLoS ONE, 2013).

Experiments:
[1] = tested on: T1, ancestral 3-ketosteroid receptor (ancSR2); test: X-ray crystal structure at […] Å (ternary complex, surface sites); the EC50 is from a separate CHO-K1 luciferase reporter assay and is not assigned to these sites; assay type: cell-based, synthetic construct
T1 construct: ancSR2 LBD, residues 2 through 248 modeled

[2] = tested on: T1, ancestral 3-ketosteroid receptor (ancSR2); test: X-ray crystal structure at […] Å; the EC50 is from a Gal4-DBD–LBD luciferase reporter assay in CHO-K1 cells; assay type: cell-based, synthetic construct

SMILES: CC#C[C@]1(O)CC[C@H]2[C@@H]3CCC4=CC(=O)CCC4=C3[C@@H](c3ccc(N(C)C)cc3)C[C@@]21C [mifepristone]
- EC50 [1]: 56 ± 1.2 nM

SMILES: CC(=O)[C@H]1CC[C@H]2[C@@H]3CCC4=CC(=O)CC[C@]4(C)[C@H]3CC[C@]12C [progesterone]
- EC50 [2]: 0.078 ± 0.0017 nM
